Measurements published in article PMC7504215, “Copper(II) Complexes with Mixed Heterocycle Ligands as Promising Antibacterial and Antitumor Species” (Molecules, 2020).

What was measured:
E. coli 25922 [1] = experiment: MIC assay, liquid medium microdilution (planktonic growth); type: cell-based, Escherichia coli; conditions: E. coli 25922, 24 h at 37 °C
Procedure: (§1) The antibacterial assays were performed on Gram-negative (Escherichia coli ATCC 25922, E. coli 5, Pseudomonas aeruginosa ATCC 27853, P. aeruginosa ATCC 9027) and Gram-positive (Staphylococcus aureus ATCC 25923, S. aureus ATCC 6538, MRSA (Meticillin-resistant S. aureus) 388, ATCC, American Type Culture Collection) bacterial strains. Microbial suspensions (1.5 × 10^8 CFU/mL; colony forming units (CFU)) corresponding to 0.5 McFarland density obtained from 15 to 18-h bacterial cultures developed on solid media were used. The antimicrobial activity was tested on Mueller–Hinton agar medium.
(§2) The quantitative assay of the antimicrobial activity was performed by the liquid medium microdilution method, in 96-well multi-well plates, to establish the minimal inhibitory concentration (MIC). For this purpose, serial two-fold dilutions of the compounds ranging between 1.000 and 1.95 μg/mL were performed in a 200 μL volume of broth and each well was seeded with 50 μL microbial inoculums. Sterility control (wells containing only culture medium) and culture controls (wells containing culture medium seeded with the microbial inoculum) were used. The influence of the DMSO solvent was also quantified in a series of wells containing DMSO, diluted accordingly with the dilution scheme used for the complexes. The plates were incubated for 24 h at 37 °C, and MIC values were considered as the lowest concentration of the tested compound that inhibited the visible growth of the microbial overnight cultures.

E. coli 5 ESBL [2] = experiment: as above; type: cell-based, Escherichia coli; conditions: E. coli 5 ESBL, 24 h at 37 °C
Procedure: as §1, §2

E. coli 25922 [3] = experiment: MBEC assay, micro-titer method (biofilm); type: cell-based, Escherichia coli
Procedure: as §1
(§3) The assessment of the complexes’ influence on the microbial ability to colonize an inert substratum with the establishment of the minimal biofilm eradication concentration (MBEC) was performed by the micro-titer method, following previously described protocols. The absorbance at 490 nm was measured with an Apollo LB 911ELISA (Berthold Technologies GmbH & Co. KG, Waltham, MA, USA) reader. All experiments were performed in triplicates.

E. coli 5 ESBL [4] = experiment: MBEC assay, micro-titer method (biofilm); type: cell-based, Escherichia coli
Procedure: as §1, §3

λ-DNA = experiment: UV-Vis absorption titration with DNA; type: binding, bacteriophage lambda; conditions: 3 μM complex, increasing λ-DNA, Tris/HCl/NaCl buffer pH 8
Procedure: (§4) To determine whether compounds have the capacity to interact with DNA, 48,500 base-pairs of genomic DNA from bacteriophage lambda (λ-DNA, Promega. Madison USA) was used. A stock solution of 10 µM λ-DNA (base-pair concentration) was prepared in 10 mM Tris/HCl buffer containing 1 mM NaCl, pH 8.
The UV-Vis absorption titration experiments were done maintaining constant the complex concentration (3 µM) and increasing the concentration of λ-DNA, in Tris-HCl/NaCl buffer solution, at room temperature, until a saturation state was achieved. After DNA addition, the solutions were allowed to equilibrate for 5 min at room temperature. The UV-Vis absorption spectra were recorded with a Jasco V-630 spectrophotometer, using a 10 mm quartz cell. Stock solutions of compounds were prepared in DMSO (1 mM) and diluted to 3 µM in 10 mM Tris/HCl containing 1 mM NaCl, pH 8.

λ-DNA/EB adduct = experiment: Quenching of fluorescence of λ-DNA/ethidium bromide adduct; type: binding, bacteriophage lambda; conditions: λ-DNA pre-treated with EB, increments of complex, pH 8
Procedure: as §4
The binding of compounds to λ-DNA was assayed by monitoring the quenching of fluorescence emitted by λ-DNA/ethidium bromide (EB) adduct (λexcit = 510, maximum emission at λem = 601). The λ-DNA solution was added to the EB solution, prepared in the same buffer, then increasing concentrations of compounds were added to EB-DNA [2, 48]. The fluorescence spectra were recorded in the range of 550–750 nm using a Thermo Fischer Scientific Varioskan Flash spectral scanning multimode reader (Vantaa, Finland). The spectra were recorded in suitable plates using 5 nm excitation and emission slits for all measurements.

[5] = Superoxide scavenging ability by EPR spectroscopy; conditions: 2.5 μM complex in DMSO, O2− 10, 20 and 30 µM
Procedure: The superoxide scavenging ability of the complexes was tested using the KO2 compound as a superoxide source combined with EPR spectroscopy. […] The KO2 was dissolved by complexation with dibenzo-18-crown-6-ether.

BJ cells = experiment: Phalloidin staining and cell imaging (cytoskeleton, nucleus); type: cell-based, Human; conditions: 24 h, 6 μg/mL
Procedure: Cytoskeleton actin filaments of BJ and B16 cells were stained with phalloidin-FITC (Sigma-Aldrich, USA) according to the manufacturer’s protocol. Briefly, cells were washed with PBS (5 min, 3 times), fixed for 5 min with 3% paraformaldehyde, washed three times with PBS, permeabilized with 0.1% Triton X-100 in PBS for 15 min, washed three times with PBS, stained with 20 μg mL^−1 phalloidin-FITC at room temperature for 1 h and washed again three times with PBS. Cell nucleus was stained with 8 μM of Hoechst 33342 solution for 10 min, washed three times with PBS and finally, mounted and sealed on glass slides with FluorSave™ Reagent (Merck Millipore, Germany). The fluorescence images were acquired using an Andor DSD2 Confocal Unit (Andor, Ireland), mounted on an epifluorescence microscope, Olympus BX-51 (Olympus, Germany), equipped with a 40x and 100x objective and an appropriate DAPI/Hoechst filter cube (excitation filter 390/40 m, dichroic mirror 405 nm and emission filter 452/45 nm) and GFP/FITC filter cube (excitation filter 466/40 nm, dichroic mirror 488 nm and emission filter 525/54 nm).

| SMILES | MIC (E. coli 25922 [1]) | MIC (E. coli 5 ESBL [2]) | MBEC value (E. coli 25922 [3]) | MBEC value (E. coli 5 ESBL [4]) | Change of UV absorption spectrum on binding to λ-DNA (λ-DNA) | Fluorescence of λ-DNA/EB adduct on adding complex (λ-DNA/EB adduct) | Superoxide scavenging (EPR signal decrease) [5] | Cell morphology (cytoskeleton and nucleus) (BJ cells) |
| --- | --- | --- | --- | --- | --- | --- | --- | --- |
| Cc1cc(-c2ccccc2)nc2ncnn12.[Cu+2].[O-][Cl+3]([O-])([O-])[O-].[O-][Cl+3]([O-])([O-])[O-].c1ccc(-c2ccccn2)nc1.c1ccc(-c2ccccn2)nc1 [(1), [Cu(bpy)2(pmtp)](ClO4)2] | 200 µM | 400 µM | 0.40 mM | 0.40 mM | decrease in the absorption intensity of the band located at 290 nm | the fluorescence intensity decreased | trap the superoxide radicals | does not alter its morphology |
| Cc1cc(-c2ccccc2)nc2ncnn12.[Cu+2].[O-][Cl+3]([O-])([O-])[O-].[O-][Cl+3]([O-])([O-])[O-].c1cnc2c(c1)ccc1cccnc12.c1cnc2c(c1)ccc1cccnc12 [(2), [Cu(phen)2(pmtp)](ClO4)2] | 20 µM | 50 µM | 0.02 mM | 0.05 mM | hypochromism observed for the band at 270 nm | the fluorescence intensity decreased | trap the superoxide radicals | affects the cell morphology |
